{"source": "paper PMC7022378", "about": "“Structural Analyses on the Deamidation of N-Terminal Asn in the Human N-Degron Pathway” (Biomolecules, 2020)", "key": {"NTAN1 Q51A": {"molecular_target": "T1, NTAN1 Q51A (Homo sapiens, UniProt Q96AB6, Q51A)", "T1 construct": "The gene for full-length NTAN1 was cloned into pET-21a(+); made in house; host or cells: E. coli Rosetta 2(DE3)", "T1 sequence (Q96AB6 1-310 Q51A)": "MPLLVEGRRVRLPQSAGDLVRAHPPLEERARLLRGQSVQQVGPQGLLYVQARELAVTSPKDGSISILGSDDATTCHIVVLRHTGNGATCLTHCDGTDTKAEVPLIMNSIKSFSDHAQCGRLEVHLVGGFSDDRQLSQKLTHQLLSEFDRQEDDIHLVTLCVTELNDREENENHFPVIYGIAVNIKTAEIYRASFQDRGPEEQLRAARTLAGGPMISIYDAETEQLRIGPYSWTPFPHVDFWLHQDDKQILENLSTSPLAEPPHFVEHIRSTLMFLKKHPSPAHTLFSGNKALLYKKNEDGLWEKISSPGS", "test": "In vitro deamidation assay, NTAN1 Q51A mutant", "format": "biochemical", "conditions": "substrate NRAAA, 100 μM, 37 °C, pH 7.0, LC-MS (Figure 3e); three independent experiments", "excerpt": "(§1) NTAN1 mutants were constructed using QuikChange Ⅱ Site-Directed Mutagenesis Kit (Agilent Technologies, Santa Clara, CA, USA). NTAN1 mutants, Q51A, S69A, T73A, T74A, C75A, H92A, S254A, T255A, and E260A were generated. The mutants were expressed and purified as for NTAN1.\n(§2) Peptides with Nt-Asn which mimic potential substrates of NTAN1 were synthesized: NRA, NRAA, NRAAA, NRQVA, NRQVAA, NRQVAAA, NFAAR, NLAAR, NRAAR, NAAAR, NNAAR, NPAAR, NGAAR, and NDAAR. Non-Nt-Asn peptides, QRAAA and VRAAA, were also synthesized. NTAN1 (at concentrations of 0.5 μM, 0.16 μM, or 0.04 μM) and the peptides (at a concentration of 100 μM) were mixed and incubated at 37 °C in a buffer containing 200 mM NaCl and 10 mM HEPES-NaOH (pH 7.0). […] The deamidation coefficient of peptides catalyzed by NTAN1 was assessed by the slope of exponential curve drawn from the concentration of the substrate over incubation time.\n(§3) The peptides were quantified by an LC-MS system (1260 Infinity/6430 Triple Quad, Agilent Technologies) equipped with a binary pump (G1312B), a thermostated column compartment (G1316C), a thermostat (G1330B), and an autosampler (G1367E). […] The data acquisition and processing were performed by using MassHunter Workstation Software Quantitative Analysis (Version B.05.00; Agilent Technologies, Santa Clara, CA, USA). […]"}, "NTAN1 S254A": {"test_system": "NTAN1 S254A", "test": "In vitro deamidation assay, NTAN1 S254A mutant", "format": "biochemical, human", "conditions": "substrate NRAAA, 100 μM, 37 °C, pH 7.0, LC-MS (Figure 3b); three independent experiments", "excerpt": "as §1, §2, §3"}, "NTAN1 S69A": {"test_system": "NTAN1 S69A", "test": "In vitro deamidation assay, NTAN1 S69A mutant", "format": "biochemical, human", "conditions": "substrate NRAAA, 100 μM, 37 °C, pH 7.0, LC-MS (Figure 1d); three independent experiments", "excerpt": "as §1, §2, §3"}, "NTAN1 C75A": {"molecular_target": "T2, NTAN1 C75A (Homo sapiens, UniProt Q96AB6, C75A)", "T2 construct": "The gene for full-length NTAN1 was cloned into pET-21a(+); made in house; host or cells: E. coli Rosetta 2(DE3)", "T2 sequence (Q96AB6 1-310 C75A)": "T1 sequence (Q96AB6 1-310 Q51A) with A51Q, C75A", "test": "In vitro deamidation assay, NTAN1 C75A mutant", "format": "biochemical", "conditions": "substrate NRAAA, 100 μM, 37 °C, pH 7.0, LC-MS; vs wild-type (Figure 1e); three independent experiments", "excerpt": "as §1, §2, §3"}, "NTAN1 H92A": {"molecular_target": "T3, NTAN1 H92A (Homo sapiens, UniProt Q96AB6, H92A)", "T3 construct": "The gene for full-length NTAN1 was cloned into pET-21a(+); made in house; host or cells: E. coli Rosetta 2(DE3)", "T3 sequence (Q96AB6 1-310 H92A)": "T1 sequence (Q96AB6 1-310 Q51A) with A51Q, H92A", "test": "In vitro deamidation assay, NTAN1 H92A mutant", "format": "biochemical", "conditions": "substrate NRAAA, 100 μM, 37 °C, pH 7.0, LC-MS; vs wild-type (Figure 1f); three independent experiments", "excerpt": "as §1, §2, §3"}}, "note": "Numbering of substitutions follows the chain as printed."}
{"substance": "NRAAA [synthesized peptide with Nt-Asn, 5 mer model substrate of NTAN1]", "values": [{"measurement": "Deamidation activity of NTAN1 Q51A", "setting": "NTAN1 Q51A", "value": "lost most deamidation activity"}, {"measurement": "Lower deamidation rate of NTAN1 S254A than wild-type NTAN1", "setting": "NTAN1 S254A", "value": "threefold"}, {"measurement": "Fold lower deamidation activity of NTAN1 S69A than wild-type NTAN1", "setting": "NTAN1 S69A", "value": "approximately 5 fold"}, {"measurement": "Deamidation activity of NTAN1 C75A", "setting": "NTAN1 C75A", "value": "completely abolished"}, {"measurement": "Deamidation activity of NTAN1 H92A", "setting": "NTAN1 H92A", "value": "completely abolished"}]}
